# Results from PubChem BioAssay AID1259407 (Chemical Carcinogenesis Research Information System (CCRIS), 2018).
# Calls of active or inactive are those of the source. No rule for the calls is given here.
# Test system: CCRIS mutagenicity, Ames/micronucleus/aberration tests
# Test: CCRIS mutagenicity studies
# [1] = Test System: AMES SALMONELLA TYPHIMURIUM, Strain/Indicator: TA98, Metabolic Activation: NONE, Method: STANDARD PLATE
# [2] = Test System: AMES SALMONELLA TYPHIMURIUM, Strain/Indicator: TA100, Metabolic Activation: NONE, Method: STANDARD PLATE
# [3] = Test System: AMES SALMONELLA TYPHIMURIUM, Strain/Indicator: TA1538, Metabolic Activation: NONE, Method: STANDARD PLATE
# [4] = Test System: AMES SALMONELLA TYPHIMURIUM, Strain/Indicator: TA98, Metabolic Activation: RAT, LIVER, S-9, AROCLOR 1254, Method: STANDARD PLATE
# [5] = Test System: AMES SALMONELLA TYPHIMURIUM, Strain/Indicator: TA97, Metabolic Activation: NONE, Method: STANDARD PLATE
# [6] = Test System: AMES SALMONELLA TYPHIMURIUM, Strain/Indicator: TA100, Metabolic Activation: RAT, LIVER, S-9, AROCLOR 1254, Method: STANDARD PLATE
smiles,measurement,setting,value
O=[N+]([O-])c1ccc2c(ccc3cc4c(ccc5ccccc54)cc32)c1,mutagenic call,"Test System: AMES SALMONELLA TYPHIMURIUM, Strain/Indicator: TA98(1,8-DNP6), Metabolic Activation: NONE",active; positive
same,mutagenic call,"Test System: AMES SALMONELLA TYPHIMURIUM, Strain/Indicator: TA98(1,8-DNP6), Metabolic Activation: RAT, LIVER, S-9, AROCLOR 1254",active; positive
same,mutagenic call,"Test System: AMES SALMONELLA TYPHIMURIUM, Strain/Indicator: TA98(NR), Metabolic Activation: NONE",active; positive
same,mutagenic call,"Test System: AMES SALMONELLA TYPHIMURIUM, Strain/Indicator: TA98(NR), Metabolic Activation: RAT, LIVER, S-9, AROCLOR 1254",active; positive
same,mutagenic call,"Test System: AMES SALMONELLA TYPHIMURIUM, Strain/Indicator: TA98, Metabolic Activation: NONE",active; positive
same,mutagenic call,"Test System: AMES SALMONELLA TYPHIMURIUM, Strain/Indicator: TA98, Metabolic Activation: RAT, LIVER, S-9, AROCLOR 1254",active; positive
same,mutagenic call,"Test System: AMES SALMONELLA TYPHIMURIUM, Strain/Indicator: TA100(NR), Metabolic Activation: NONE",inactive; negative
same,mutagenic call,"Test System: AMES SALMONELLA TYPHIMURIUM, Strain/Indicator: TA100(NR), Metabolic Activation: RAT, LIVER, S-9, AROCLOR 1254",active; positive
same,mutagenic call,"Test System: AMES SALMONELLA TYPHIMURIUM, Strain/Indicator: TA100, Metabolic Activation: NONE",inactive; negative
same,mutagenic call,"Test System: AMES SALMONELLA TYPHIMURIUM, Strain/Indicator: TA100, Metabolic Activation: RAT, LIVER, S-9, AROCLOR 1254",active; positive
same,mutagenic call,"Test System: AMES SALMONELLA TYPHIMURIUM, Strain/Indicator: TA104, Metabolic Activation: NONE",inactive; negative
same,mutagenic call,"Test System: AMES SALMONELLA TYPHIMURIUM, Strain/Indicator: TA104, Metabolic Activation: RAT, LIVER, S-9, AROCLOR 1254",active; positive
CN(C)CCCNc1c2ccccc2nc2cccc([N+](=O)[O-])c12,mutagenic call,"Test System: AMES SALMONELLA TYPHIMURIUM, Strain/Indicator: TA98(1,8-DNP6), Metabolic Activation: NONE, Method: STANDARD PLATE",active; positive
same,mutagenic call,"Test System: AMES SALMONELLA TYPHIMURIUM, Strain/Indicator: TA98(1,8-DNP6), Metabolic Activation: RAT, LIVER, S-9, Method: STANDARD PLATE",active; positive
same,mutagenic call,"Test System: AMES SALMONELLA TYPHIMURIUM, Strain/Indicator: TA98(NR), Metabolic Activation: NONE, Method: STANDARD PLATE",active; positive
same,mutagenic call,"Test System: AMES SALMONELLA TYPHIMURIUM, Strain/Indicator: TA98(NR), Metabolic Activation: RAT, LIVER, S-9, Method: STANDARD PLATE",active; positive
same,mutagenic call,[1],active; positive
same,mutagenic call,"Test System: AMES SALMONELLA TYPHIMURIUM, Strain/Indicator: TA98, Metabolic Activation: RAT, LIVER, S-9, Method: STANDARD PLATE",active; positive
same,mutagenic call,[2],active; positive
same,mutagenic call,"Test System: AMES SALMONELLA TYPHIMURIUM, Strain/Indicator: TA1535, Metabolic Activation: NONE, Method: STANDARD PLATE",inactive; negative
same,mutagenic call,"Test System: AMES SALMONELLA TYPHIMURIUM, Strain/Indicator: TA1537, Metabolic Activation: NONE, Method: STANDARD PLATE",active; positive
same,mutagenic call,"Test System: AMES SALMONELLA TYPHIMURIUM, Strain/Indicator: TA1537 PKM101, Metabolic Activation: NONE, Method: STANDARD PLATE",active; positive
same,mutagenic call,[3],active; positive
same,mutagenic call,"Test System: CHINESE HAMSTER V-79, Strain/Indicator: V-79/6-THIOGUANINE, Metabolic Activation: NONE, Method: STANDARD PLATE",active; positive
same,mutagenic call,"Test System: CHINESE HAMSTER V-79, Strain/Indicator: V-79/OUABAIN, Metabolic Activation: NONE, Method: STANDARD PLATE",active; positive
same,mutagenic call,"Test System: Escherichia coli, Strain/Indicator: CC107 (G6 to G7 frameshifts), Metabolic Activation: None, Method: Modified preincubation",active; positive
same,mutagenic call,"Test System: Escherichia coli, Strain/Indicator: CC108 (G6 to G5 frameshifts), Metabolic Activation: None",active; positive
same,mutagenic call,"Test System: Escherichia coli, Strain/Indicator: CC109 (CG5 to CG4 frameshifts), Metabolic Activation: None, Method: Modified preincubation",active; positive
same,mutagenic call,"Test System: Escherichia coli, Strain/Indicator: CC111 (A7 to A6 frameshifts), Metabolic Activation: None, Method: Modified preincubation",inactive; negative
O=Nc1ccc2c(c1)Cc1ccccc1-2,mutagenic call,[1],active; positive
same,mutagenic call,[4],active; positive
same,mutagenic call,"Test System: AMES SALMONELLA TYPHIMURIUM, Strain/Indicator: TA98, Metabolic Activation: S-9, Method: STANDARD PLATE",active; positive
same,mutagenic call,[2],active; positive
same,mutagenic call,"Test System: AMES SALMONELLA TYPHIMURIUM, Strain/Indicator: TA100, Metabolic Activation: S-9, Method: STANDARD PLATE",active; positive
same,mutagenic call,[3],active; positive
Oc1ccc(N=Nc2ccccn2)c(O)c1,mutagenic call,"End Point: Mouse lymphoma, Test System: L5178Y (TK+/TK-)/trifluorothymidine, Metabolic Activation: None, Method: Suspension/plate",inactive; negative
same,mutagenic call,"End Point: Mouse lymphoma, Test System: L5178Y (TK+/TK-)/trifluorothymidine, Metabolic Activation: Rat, Liver, S-9, Method: Suspension/plate",inactive; negative
same,mutagenic call,"Test System: Ames Salmonella typhimurium, Strain/Indicator: TA98, Metabolic Activation: None",inactive; negative
same,mutagenic call,"Test System: Ames Salmonella typhimurium, Strain/Indicator: TA98, Metabolic Activation: Rat, Liver, S-9",inactive; negative
same,mutagenic call,"Test System: Ames Salmonella typhimurium, Strain/Indicator: TA100, Metabolic Activation: None",inactive; negative
same,mutagenic call,"Test System: Ames Salmonella typhimurium, Strain/Indicator: TA100, Metabolic Activation: Rat, Liver, S-9",inactive; negative
same,mutagenic call,"Test System: Ames Salmonella typhimurium, Strain/Indicator: TA1535, Metabolic Activation: None",inactive; negative
same,mutagenic call,"Test System: Ames Salmonella typhimurium, Strain/Indicator: TA1535, Metabolic Activation: Rat, Liver, S-9",inactive; negative
same,mutagenic call,"Test System: Ames Salmonella typhimurium, Strain/Indicator: TA1537, Metabolic Activation: None",inactive; negative
same,mutagenic call,"Test System: Ames Salmonella typhimurium, Strain/Indicator: TA1537, Metabolic Activation: Rat, Liver, S-9",inactive; negative
c1cc2cccc3c4cccc5cccc(c(c1)c23)c54,mutagenic call,[5],inactive; negative
same,mutagenic call,"Test System: AMES SALMONELLA TYPHIMURIUM, Strain/Indicator: TA97, Metabolic Activation: RAT, LIVER, S-9, PCB, Method: STANDARD PLATE",active; positive
same,mutagenic call,"Test System: AMES SALMONELLA TYPHIMURIUM, Strain/Indicator: TA97A, Metabolic Activation: RAT, LIVER, S-9, AROCLOR 1254, Method: STANDARD PLATE",active; positive
same,mutagenic call,[1],inactive; negative
same,mutagenic call,"Test System: AMES SALMONELLA TYPHIMURIUM, Strain/Indicator: TA98, Metabolic Activation: RAT, LIVER, S-9, AROCLOR 1254 (20 OR 50 µL S-9), Method: STANDARD PLATE",active; positive
same,mutagenic call,"Test System: AMES SALMONELLA TYPHIMURIUM, Strain/Indicator: TA98, Metabolic Activation: RAT, LIVER, S-9, PCB, Method: STANDARD PLATE",active; positive
same,mutagenic call,[2],inactive; negative
same,mutagenic call,"Test System: AMES SALMONELLA TYPHIMURIUM, Strain/Indicator: TA100, Metabolic Activation: RAT, LIVER, S-9, AROCLOR 1254 (50 µL S-9), Method: STANDARD PLATE",active; positive
same,mutagenic call,[6],active; positive
same,mutagenic call,"Test System: AMES SALMONELLA TYPHIMURIUM, Strain/Indicator: TA100, Metabolic Activation: RAT, LIVER, S-9, PCB, Method: STANDARD PLATE",active; positive
same,mutagenic call,"Test System: AMES SALMONELLA TYPHIMURIUM, Strain/Indicator: TA1535, Metabolic Activation: RAT, LIVER, S-9, AROCLOR 1254, Method: STANDARD PLATE",active; positive
same,mutagenic call,"Test System: AMES SALMONELLA TYPHIMURIUM, Strain/Indicator: TA1537, Metabolic Activation: RAT, LIVER, S-9, AROCLOR 1254, Method: STANDARD PLATE",active; positive
Br/C=C/Br,mutagenic call,[5],inactive; negative
same,mutagenic call,"Test System: AMES SALMONELLA TYPHIMURIUM, Strain/Indicator: TA97, Metabolic Activation: RAT, LIVER, S-9, AROCLOR 1254, Method: STANDARD PLATE",active; positive
same,mutagenic call,[1],active; positive
same,mutagenic call,[4],active; positive
same,mutagenic call,[2],active; positive
same,mutagenic call,[6],active; positive
same,mutagenic call,"Test System: AMES SALMONELLA TYPHIMURIUM, Strain/Indicator: TA104, Metabolic Activation: NONE, Method: STANDARD PLATE",inactive; negative
same,mutagenic call,"Test System: AMES SALMONELLA TYPHIMURIUM, Strain/Indicator: TA104, Metabolic Activation: RAT, LIVER, S-9, AROCLOR 1254, Method: STANDARD PLATE",active; positive
